The target of one data set is T1, Beta-secretase 2 (Homo sapiens, UniProt Q9Y5Z0).
T1 sequence (Q9Y5Z0 whole entry): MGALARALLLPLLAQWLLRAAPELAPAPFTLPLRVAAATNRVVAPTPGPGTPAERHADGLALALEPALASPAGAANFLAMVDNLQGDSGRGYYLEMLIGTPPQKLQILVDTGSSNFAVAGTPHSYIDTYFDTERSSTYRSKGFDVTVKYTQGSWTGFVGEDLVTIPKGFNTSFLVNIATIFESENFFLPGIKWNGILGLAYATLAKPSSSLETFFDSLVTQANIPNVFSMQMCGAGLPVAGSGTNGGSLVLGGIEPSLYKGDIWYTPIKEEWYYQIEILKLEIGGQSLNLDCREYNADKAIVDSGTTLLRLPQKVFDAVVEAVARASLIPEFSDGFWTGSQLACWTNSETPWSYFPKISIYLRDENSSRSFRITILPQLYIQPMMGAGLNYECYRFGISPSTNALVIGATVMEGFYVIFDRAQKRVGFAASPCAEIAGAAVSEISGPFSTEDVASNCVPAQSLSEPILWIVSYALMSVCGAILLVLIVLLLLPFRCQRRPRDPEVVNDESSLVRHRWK
The data set can be described thus: Inhibition of BACE2 by FRET assay.

The target in data set [1] is T2, Cathepsin D (Homo sapiens, UniProt P07339). The data set can be described thus: Inhibition of cathepsin D by FRET assay.
T2 sequence (P07339 65-162 limits assumed): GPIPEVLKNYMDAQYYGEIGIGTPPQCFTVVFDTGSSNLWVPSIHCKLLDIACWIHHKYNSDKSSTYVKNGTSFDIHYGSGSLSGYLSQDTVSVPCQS
T2 sequence (P07339 169-412 limits assumed): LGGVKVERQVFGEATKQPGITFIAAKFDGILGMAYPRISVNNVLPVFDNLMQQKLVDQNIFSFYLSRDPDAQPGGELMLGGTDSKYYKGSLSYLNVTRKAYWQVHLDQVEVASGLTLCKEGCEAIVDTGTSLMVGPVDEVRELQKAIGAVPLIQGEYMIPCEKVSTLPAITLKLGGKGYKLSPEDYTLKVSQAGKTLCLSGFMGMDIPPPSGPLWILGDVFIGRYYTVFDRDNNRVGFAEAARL
The target in data set [2] is T3, Beta-secretase 1 (Homo sapiens, UniProt P56817). The data set can be described thus: Inhibition of BACE1 expressed in CHO cells expressing wild type human APP assessed as inhibition of amyloid beta-40 or 42 production by ELISA assay. In kind it is cell-based. (In general: An ELISA detects its analyte on a solid surface through an enzyme-linked reagent.)
T3 sequence (P56817 whole entry): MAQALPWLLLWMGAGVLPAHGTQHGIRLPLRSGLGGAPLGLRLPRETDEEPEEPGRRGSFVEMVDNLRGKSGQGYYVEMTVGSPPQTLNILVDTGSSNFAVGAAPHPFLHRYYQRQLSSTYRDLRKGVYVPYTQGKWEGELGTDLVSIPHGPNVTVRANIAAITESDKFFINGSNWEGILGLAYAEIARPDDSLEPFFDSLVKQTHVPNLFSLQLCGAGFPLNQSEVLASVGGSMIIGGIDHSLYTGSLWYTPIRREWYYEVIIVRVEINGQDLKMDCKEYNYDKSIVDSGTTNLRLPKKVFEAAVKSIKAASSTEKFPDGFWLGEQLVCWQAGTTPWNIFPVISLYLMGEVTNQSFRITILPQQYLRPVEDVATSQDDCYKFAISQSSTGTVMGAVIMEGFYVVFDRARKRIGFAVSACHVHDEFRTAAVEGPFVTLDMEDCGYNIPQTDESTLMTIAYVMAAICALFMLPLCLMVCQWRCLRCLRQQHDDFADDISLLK
The nature of data set [3]: Ratio of AUC in brain to plasma. As to conditions: brain and plasma; read-out: Ratio AUC. In kind it is ADME, cell-free.
In data set [4] the target is T3, Beta-secretase 1. The data set can be described thus: Inhibition of BACE1 at 2.5 uM by FRET assay.
Data set [5] concerns the target T3, Beta-secretase 1. The data set can be described thus: Inhibition of BACE1 by FRET assay.
For data set [6], the target named is T2, Cathepsin D. The data set can be described thus: Inhibition of cathepsin D at 100 uM by FRET assay.

The IC50 is the concentration needed to halve the response being measured. Higher therefore signals a need for much substance. As usually defined, the EC50 is the concentration at which the effect is half-maximal. In general, inhibition refers to the relative decrease from the control value, in per cent. A lower inhibition goes with little suppression.

The structures appear in SMILES notation.

Consider `CCC(=O)c1cc([C@@]2(c3cccc(-c4cccnc4F)c3)N=C(N)N(C)C2=O)cs1`, for which the concentration for half-maximal inhibition (IC50) at Beta-secretase 2 amounted to 5.45 µM; on Cathepsin D [1], 78.4 µM. Besides, the concentration for a half-maximal effect (EC50) on Beta-secretase 1 [2] amounted to 2.9 µM. Moreover, the Kp in data set [3] was determined as 0.1. At Beta-secretase 1 [4], the inhibition was found to be 47%.
Turning to `CCn1cc([C@@]2(c3cccc(-c4cccnc4F)c3)N=C(N)N(C)C2=O)cn1`, the IC50 against Beta-secretase 2 was determined as 7.39 µM; on Beta-secretase 1 [5] it was 1.96 µM. For the same molecule, the 50% effective concentration (EC50) at Beta-secretase 1 [2] is > 2.5 µM. The molecule further yielded an inhibition on Cathepsin D [6] of 27%.
Take `Cc1cc(C2(c3cccc(-c4cncnc4)c3)N=C(N)N(C)C2=O)c(Cl)s1` (racemic): the IC50 at Beta-secretase 2 stood at 1.15 µM; on Beta-secretase 1 [5], 0.47 µM; at Cathepsin D [1] it was 31.6 µM. In addition, on Beta-secretase 1 [2], the EC50 was determined as 2.23 µM. Further, the Kp in data set [3] came out at 0.1.
Taken in the same sequence, the figures for `CN1C(=O)C(c2cccc(-c3cncnc3)c2)(c2csc(Cl)c2)N=C1N` (racemic) were 0.62 µM, 0.08 µM, 29.9 µM, 0.34 µM and 0.1.
In the same order, the values of `Cc1cc(C2(c3cccc(-c4cncnc4)c3)N=C(N)N(C)C2=O)cs1` (racemic) are 0.78 µM, 0.14 µM, 30.5 µM, 0.55 µM and 0.1.
Taken in the same sequence, the figures for `CCC(=O)c1cc(C2(c3cccc(-c4cncnc4)c3)N=C(N)N(C)C2=O)cs1` (racemic) were 0.07 µM, 0.015 µM, 13 µM, 0.07 µM and 0.1.

Values taken from ChEMBL document CHEMBL1821667, “New pyrazolyl and thienyl aminohydantoins as potent BACE1 inhibitors: exploring the S2' region” (Bioorg Med Chem Lett, 2011).
